Results published in patent US20230365563A1, “QUINAZOLINE COMPOUND AND APPLICATION THEREOF” (SHANGHAI PHARMACEUTICALS HOLDING CO., LTD., priority 2020, published 2023).

The compounds below were run against T1, KRAS-G12D and SOS1 (Homo sapiens, UniProt P01116, G12D) (assay: Inhibition of KRAS-G12D/SOS1 binding (Cisbio binding kit, 665/615 ratio), Effect Embodiment A). Conditions: read-out: GTP-KRAS-G12D:SOS1 IC50.
T1 construct: purchased
T1 sequence (P01116 1-188 isoform P01116-2 G12D): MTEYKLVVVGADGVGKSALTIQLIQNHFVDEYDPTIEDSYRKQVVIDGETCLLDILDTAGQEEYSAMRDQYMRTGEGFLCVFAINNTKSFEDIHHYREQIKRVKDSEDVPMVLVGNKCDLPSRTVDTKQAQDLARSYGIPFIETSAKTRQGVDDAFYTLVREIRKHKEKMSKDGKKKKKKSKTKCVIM
Description: Similarly, the first dilution point of the compound to be tested was its storage solution, and the solution was 3-fold diluted, with 11+0 points of dilution. Echo was used to transfer 0.2 μL gradient diluted solution of the compounds into a 384-well plate, with 2 duplicated wells for each compound, and the final concentration of DMSO was 1%. The solution was centrifuged for 1 min at 1000 rpm/min.
IC50 of the compounds was fitted by Graphpad Prism 8 nonlinear regression equation: […]
The IC50 (half inhibitory concentration) of the compound was obtained by using the following nonlinear fitting formula: […]
`CN(C)C1CN(c2nc(N3CCNCC3)c3cc(Cl)c(-c4cc(O)cc5ccccc45)c(F)c3n2)C1` (single isomer, unassigned) [Comparative embodiment b, reference compound] gave an IC50 of 83.4 µM. Work on `CN(C)C1CN(c2nc(N3C[C@H]4CC[C@@H]3CN4)c3cc(Cl)c(-c4cc(O)cc5ccccc45)c(F)c3n2)C1` (single isomer, unassigned) [Compound 1a, (R or S)-4-(4-((1R,4R)-2,5-diazabicyclo[2.2.2]octan-2-yl)-6-chloro-2-(3-(dimethylamino)azetidin-1-yl)-8-fluoroquinazolin-7-yl)naphthalen-2-ol] yielded an IC50 of 6.44 µM. `CN(C)C1CN(c2nc(N3C[C@H]4CC[C@@H]3CN4)c3cc(Cl)c(-c4cc(O)cc5ccccc45)c(F)c3n2)C1` (single isomer, unassigned) [Compound 1b, (S or R)-4-(4-((1R,4R)-2,5-diazabicyclo[2.2.2]octan-2-yl)-6-chloro-2-(3-(dimethylamino)azetidin-1-yl)-8-fluoroquinazolin-7-yl)naphthalen-2-ol] showed an IC50 of 31.9 µM. For `CN(C)C1CN(c2nc(N3C[C@H]4C[C@@H]3CN4)c3cc(Cl)c(-c4cc(O)cc5ccccc45)c(F)c3n2)C1` (single isomer, unassigned) [Compound 3a, (R or S)-4-(4-((1R,4R)-2,5-diazabicyclo [2.2.1]heptan-2-yl)-6-chloro-2-(3-(dimethylamino)azetidin-1-yl)-8-fluoro-quinazolin-7-yl)naphthalen-2-ol], the IC50 was 1.36 µM. Compound `CN(C)C1CN(c2nc(N3C[C@@H]4CC[C@H]3CN4)c3cc(Cl)c(-c4cc(O)cc5ccccc45)c(F)c3n2)C1` (single isomer, unassigned) [Compound 4b, (S or R)-4-(4-((1S,4S)-2,5-diazabicyclo [2.2.2]octan-2-yl)-6-chloro-2-(3-(dimethylamino)azetidin-1-yl)-8-fluoro-quinazolin-7-yl)naphthalen-2-ol] has an IC50 of 4.59 µM. `CN(C)C1CN(c2nc(N3C[C@H]4CC[C@@H](C3)N4)c3cc(Cl)c(-c4cc(O)cc5ccccc45)c(F)c3n2)C1` (single isomer, unassigned) [Compound 5b, (S or R)-4-(4-((1R,5S)-3,8 diazabicyclo [3.2.1]octan-3-yl)-6-chloro-2-(3-(dimethylamino)azetidin-1-yl)-8-fluoro-quinazolin-7-yl)naphthalen-2-ol] showed an IC50 of 63.3 µM. Work on `CN(C)C1CN(c2nc(N3CC4(CCNC4)C3)c3cc(Cl)c(-c4cc(O)cc5ccccc45)c(F)c3n2)C1` (single isomer, unassigned) [Compound 8b, (S or R)-4-(6-chloro-2-(3-(dimethylamino)azetidin-1-yl)-8-fluoro-4-(2,6-diazaspiro[3.4]octan-2-yl)quinazolin-7-yl)naphthalen-2-ol] yielded an IC50 of 71 µM. Work on `CN(C)C1CN(c2nc(N3CC(N(C)C)C3)c3cc(Cl)c(-c4cc(O)cc5ccccc45)c(F)c3n2)C1` (single isomer, unassigned) [Compound 9a, (R or S)-4-(6-chloro-2,4-bis(3-(dimethylamino)azetidin-1-yl)-8-fluoro-7-yl)naphthalen-2-ol] yielded an IC50 of 81.6 µM. In the case of `CN(C)C1CN(c2nc(N3CC(N(C)C)C3)c3cc(Cl)c(-c4cc(O)cc5ccccc45)c(F)c3n2)C1` (single isomer, unassigned) [Compound 9b, (S or R)-4-(6-chloro-2,4-bis(3-(dimethylamino)azetidin-1-yl)-8-fluoro-7-yl)naphthalen-2-ol], the IC50 is reported as over 200 µM. For `CN(C)C1CN(c2nc(N3CC4(CCNCC4)C3)c3cc(Cl)c(-c4cc(O)cc5ccccc45)c(F)c3n2)C1` (single isomer, unassigned) [Compound 10b, (S or R)-4-(6-chloro-2-(3-(dimethylamino)azetidin-1-yl)-8-fluoro-4-(2,7-diazaspiro[3.5 5]nonan-2-yl)quinazolin-7-yl)naphthalen-2-ol], the IC50 was 65.1 µM. For `CN(C)C1CN(c2nc(N3CCC4(CC3)CNC4)c3cc(Cl)c(-c4cc(O)cc5ccccc45)c(F)c3n2)C1` (single isomer, unassigned) [Compound 11a, (R or S)-4-(6-chloro-2-(3-(dimethylamino)azetidin-1-yl)-8-fluoro-4-(2,7-diazaspiro[3.5]nonan-7-yl)quinazolin-7-yl)naphthalen-2-ol], the IC50 was 1.53 µM. In the case of `CN(C)C1CN(c2nc(N3CCC4(CCCN4)CC3)c3cc(Cl)c(-c4cc(O)cc5ccccc45)c(F)c3n2)C1` (single isomer, unassigned) [Compound 12a, (R or S)-4-(6-chloro-2-(3-(dimethylamino)azetidin-1-yl)-8-fluoro-4-(1,8-diazaspiro[4.5]decan-8-yl)quinazolin-7-yl)naphthalen-2-ol], the IC50 is reported as 7.12 µM. `CN(C)C1CN(c2nc(N3C[C@H]4CNC[C@H]4C3)c3cc(Cl)c(-c4cc(O)cc5ccccc45)c(F)c3n2)C1` (single isomer, unassigned) [Compound 13a, (R or S)-4-(6-chloro-2-(3-(dimethylamino)azetidin-1-yl)-8-fluoro-4-((3aR,6aS)-hexahydro-pyrrolo[3,4-c]pyrrol-2 (1H)-yl)quinazolin-7-yl)naphthalen-2-ol] showed an IC50 of 2.24 µM. Compound `CN(C)C1CN(c2nc(N3CC4CNCC4C3)c3cc(Cl)c(-c4cc(O)cc5ccccc45)c(F)c3n2)C1` (single isomer, unassigned) [Compound 14c, (R or S)-4-(6-chloro-2-(3-(dimethylamino)azetidin-1-yl)-8-fluoro-4-((3aR,6aR or 3aS,6aS)-hexahydro-pyrrolo[3,4-c]pyrrol-2(1H)-yl)quinazolin-7-yl)naphthalen-2-ol] has an IC50 of 9.49 µM. In the case of `CN(C)C1CN(c2nc(N3CC4CNCC4C3)c3cc(Cl)c(-c4cc(O)cc5ccccc45)c(F)c3n2)C1` (single isomer, unassigned) [Compound 14d, (S or R)-4-(6-chloro-2-(3-(dimethylamino)azetidin-1-yl)-8-fluoro-4-((3aR,6aR or 3aS,6aS)-hexahydro-pyrrolo[3,4-c]pyrrol-2(1H)-yl)quinazolin-7-yl)naphthalen-2-ol], the IC50 is reported as 56.7 µM. In the case of `CN(CCN)c1nc(N2CC(N(C)C)C2)nc2c(F)c(-c3cc(O)cc4ccccc34)c(Cl)cc12` (single isomer, unassigned) [Compound 15a, (R or S)-4-(4((2-aminoethyl) (methyl)-amino)-6-chloro-2-(3-(dimethylamino)azetidin-1-yl)-8-fluoroquinazolin-7-yl)naphthalen-2-ol], the IC50 is reported as 1.35 µM. `CN(CCN)c1nc(N2CC(N(C)C)C2)nc2c(F)c(-c3cc(O)cc4ccccc34)c(Cl)cc12` (single isomer, unassigned) [Compound 15b, (S or R)-4-(4((2-aminoethyl) (methyl)-amino)-6-chloro-2-(3-(dimethylamino)azetidin-1-yl)-8-fluoroquinazolin-7-yl)naphthalen-2-ol] was tested, and the IC50 was 52.7 µM. `CNCCN(C)c1nc(N2CC(N(C)C)C2)nc2c(F)c(-c3cc(O)cc4ccccc34)c(Cl)cc12` (single isomer, unassigned) [Compound 16a, (R or S)-4-(6-chloro-2-(3-(dimethylamino)azetidin-1-yl)-8-fluoro-4-(methyl(2-(methylamino)ethyl)amino)quinazolin-7-yl)naphthalen-2-ol] was tested, and the IC50 was 3.49 µM. Compound `CNCCN(C)c1nc(N2CC(N(C)C)C2)nc2c(F)c(-c3cc(O)cc4ccccc34)c(Cl)cc12` (single isomer, unassigned) [Compound 16b, (S or R)-4-(6-chloro-2-(3-(dimethylamino)azetidin-1-yl)-8-fluoro-4-(methyl(2-(methylamino)ethyl)amino)quinazolin-7-yl)naphthalen-2-ol] has an IC50 of 83.4 µM. Compound `CN(C)CCN(C)c1nc(N2CC(N(C)C)C2)nc2c(F)c(-c3cc(O)cc4ccccc34)c(Cl)cc12` (single isomer, unassigned) [Compound 17a, (R or S)-4-(6-chloro-2-(3-(dimethylamino)azetidin-1-yl)-4-((2-(dimethylamino)ethyl)(methyl)amino)-8-fluoro-quinazolin-7-yl)naphthalen-2-ol] has an IC50 of 5.81 µM. `CN(C)C1CN(c2nc(NCCO)c3cc(Cl)c(-c4cc(O)cc5ccccc45)c(F)c3n2)C1` (single isomer, unassigned) [Compound 18b, (S or R)-4-(6-chloro-2-(3-(dimethylamino)azetidin-1-yl)-8-fluoro-4-((2-hydroxyethyl)amino)-quinazolin-7-yl)naphthalen-2-ol] showed an IC50 of 2.36 µM. Work on `CN(C)C1CN(c2nc(C3CNC3)c3cc(Cl)c(-c4cc(O)cc5ccccc45)c(F)c3n2)C1` (single isomer, unassigned) [Compound 21a, (S or R)-4-(4-(azetidin-3-yl)-6-chloro-2-(3-(dimethylamino)azetidin-1-yl)-8-fluoroquinazolin-7-yl)naphthalen-2-ol bistrifluoroacetate] yielded an IC50 of 1.28 µM. `CN(C)C1CN(c2nc(C3(C(N)=O)CNC3)c3cc(Cl)c(-c4cc(O)cc5ccccc45)c(F)c3n2)C1` (single isomer, unassigned) [Compound 22b, (R or S)-3-(6-chloro-2-(3-(dimethylamino)azetidin-1-yl)-8-fluoro-7-(3-hydroxynaphthalen-1-yl)quinazolin-4-yl)azetidin-3-carboxamide bistrifluoroacetate] showed an IC50 of 2.42 µM. `CN(C)C1CN(c2nc(N3C[C@H]4CC[C@@H](C3)[C@@H]4N)c3cc(Cl)c(-c4cc(O)cc5ccccc45)c(F)c3n2)C1` (single isomer, unassigned) [Compound 30, (S or R)-4-(4-((1R,5S,8S)-8-amino-3-azabicyclo[3.2.1]octan-3-yl)-6-chloro-2-(3-(dimethylamino)azetidin-1-yl)-8-fluoroquinazolin-7-yl)naphthalen-2-ol] was tested, and the IC50 was 1.23 µM. For `CN(C)C1CN(c2nc(NC3CC4CCCC(C3)N4)c3cc(Cl)c(-c4cc(O)cc5ccccc45)c(F)c3n2)C1` (single isomer, unassigned) [Compound 31, 4-((S or R)-4-(((1R,3R,5S)-9-azabicyclo[3.3.1]nonan-3-yl)amino)-6-chloro-2-(3-(dimethylamino)azetidin-1-yl)-8-fluoroquinazolin-7-yl)naphthalen-2-ol], the IC50 was about 69.7 µM.
